Data as given in US12559504B2, “Benzotriazole derivative” (UBE CORPORATION, priority 2019, dated 2026).

molecular target: T1, GST fusion human Keap1 (amino acid residue: 325-624) protein (Homo sapiens, UniProt Q14145); experiment: Keap1-Nrf2 binding inhibition test (fluorescence polarization); details: compound concentration of 100 nM; read-out: inhibition rate
T1 construct: GST fusion human Keap1 (amino acid residue: 325-624) protein; purchased Protein tech Ag0779
Protocol: The inhibitory activity of each test compound on the binding between Nrf2 and Keap1 was measured by the fluorescence polarization method. A solution consisting of 20 mM tris-hydrochloride pH7.5 (NIPPON GENE CO., LTD., REF: 318-90225), 150 mM NaCl [FUJIFILM Wako Pure Chemical. Corporation, REF: 191-01665], 0.05% Tween 20 (BioRAD, REF: 161-0781), and 5 mM DTT (FUJIFILM Wako Pure Chemical Corporation, REF: 049-08972) was used as a buffer solution. To a test compound solution (70 μL) adjusted to each concentration with 10% DMSO (FUJIFILM Wako Pure Chemical Corporation, REF: 043-07216) was added a buffer solution (350 μL) comprising 6 nM FITC-labeled Nrf2 peptide (FITC-Ahx-LDEETGEFL-NH2, Invitrogen) and 0.2 mg/mL of BSA (FUJIFILM Wako Pure Chemical Corporation, REF: 017-22231). Each 120 μL of the resulting mixture was dispensed into a black 96 well plate, and a buffer solution (80 μL) comprising 2.5 nM GST fusion human Keap1 (amino acid residue: 325-624) protein (Protein tech, REF: Ag0779) was added thereto. A Keap1-free buffer solution was added to some wells to prepare negative controls. Meanwhile, compound-free wells were used as positive controls. The plate was incubated at room temperature for 30 minutes, and each fluorescence polarization at excitation wavelength of 482 nm and fluorescence wavelength of 530 nm was measured by using a plate reader Clariostar (BMG Labtech). The fluorescence polarization of the negative control was set to be 100% inhibition, fluorescence polarization of the positive control was set to be 0% inhibition, and the inhibition rate of each test compound at 100 nM was calculated by using the following equation. Inhibition rate (%)=100−((Fluorescence polarization when test compound was added−Fluorescence polarization of negative control)/(Fluorescence polarization of positive control−Fluorescence polarization of negative control))×100

T1 sequence (Q14145 325-624): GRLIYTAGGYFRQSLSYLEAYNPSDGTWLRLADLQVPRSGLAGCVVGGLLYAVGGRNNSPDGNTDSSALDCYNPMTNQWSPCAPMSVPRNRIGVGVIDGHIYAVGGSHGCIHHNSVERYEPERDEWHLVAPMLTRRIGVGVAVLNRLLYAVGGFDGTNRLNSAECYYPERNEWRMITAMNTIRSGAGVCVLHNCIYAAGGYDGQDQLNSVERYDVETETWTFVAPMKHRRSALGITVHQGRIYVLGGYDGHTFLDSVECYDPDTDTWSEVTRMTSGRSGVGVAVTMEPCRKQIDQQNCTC

Row | Compound | inhibition at 0.1 µM [%]
1 | CC[C@@H]1CN(Cc2cc(C(c3ccc4c(nnn4C)c3C)C(C)(C)C(=O)O)ccc2C)Cc2cc3ncccc3cc2O1 (single isomer, unassigned) [Example 41] | ≥ 50
2 | CC[C@@H]1CN(Cc2cc(C(c3ccc4c(nnn4C)c3C)C(C)(C)C(=O)O)ccc2C)Cc2cnc3ccccc3c2O1 (single isomer, unassigned) [Example 47] | ≥ 50
3 | CC[C@@H]1CN(Cc2cc(C(c3ccc4c(nnn4C)c3C)C(C)(C)C(=O)O)ccc2C)Cc2cc3c(cc2O1)OC(F)(F)O3 (single isomer, unassigned) [Example 29] | ≥ 50
4 | CC[C@H]1CN(Cc2cc(C(c3ccc4c(nnn4C)c3C)C(C)(C)C(=O)O)ccc2C)Cc2ncc3ccccc3c2O1 (single isomer, unassigned) [Example 89-(b)] | ≥ 50
5 | CC[C@@H]1CN(Cc2cc(C(c3ccc4c(nnn4C)c3C)C(C)(C)C(=O)O)ccc2C)Cc2nc3ccccc3cc2O1 (single isomer, unassigned) [Example 37] | ≥ 50

More lines, now with the values ahead:

Row | inhibition at 0.1 µM [%] | Compound
6 | ≥ 50 | CC[C@@H]1CN(Cc2cc(C(c3ccc4c(nnn4C)c3C)C(C)(C)C(=O)O)ccc2C)Cc2cc3c(cc2O1)CCCC3 (single isomer, unassigned) [Example 33]
7 | ≥ 50 | CC[C@@H]1CN(Cc2cc(C(c3ccc4c(nnn4C)c3C)C(C)(C)C(=O)O)ccc2C)Cc2ccc3c(c2O1)CCC3 (single isomer, unassigned) [Example 35]
8 | ≥ 50 | CC[C@@H]1CN(Cc2cc(C(c3ccc4c(nnn4C)c3C)C(C)(C)C(=O)O)ccc2C)Cc2cc3c(cc2O1)CCC3 (single isomer, unassigned) [Example 31]

tested on: NQO1; experiment: NQO1 expression induction test in mouse kidney (single administration); assay type: in vivo; details: Mus musculus, po, 6 h, Dose 10 mg/kg, BALB/c mouse kidney, 6 hours after administration, ratio to control group
Protocol: Each test compound solution for administration was prepared by dissolving or suspending each test compound into a 0.5 w/v % aqueous solution of methylcellulose (0.5% MC) (manufactured by Wako Pure Chemical Industries, Ltd.).
Each prepared test compound was orally administered to a BALB/c mouse (female, provided by Charles River Laboratories Japan, Inc.). Non-treated group was used as a control group. After 6 hours from the administration, each mouse was anesthetized with isoflurane, and euthanized with bloodletting by incising a lower aorta. Immediately, the left kidney was excised, cut into small pieces, and then the cut kidney pieces were transferred to RNA later (Thermo Fisher Scientific).
Then, mRNA was extracted from the collected kidney pieces by using NucleoSpin (registered trademark) RNA Kit (Takara Bio Inc.), each concentration was quantified by FlexStation3 (Molecular Devices), and then the concentration was adjusted to a constant concentration. A reverse transcription synthesis of cDNA was carried out from the mRNA with the constant concentration by using PrimeScript™ RT reagent Kit with gDNA Eraser and PCR Thermal Cycler (Takara Bio Inc.). Then, in addition to the resulting cDNA, SYBR (registered trademark) Premix Ex Taq™ II and NQO1, GAPDH primer (Takara Bio Inc.) were used to carry out Real-time PCR by PCR Thermal Cycler Dice Real time (Takara Bio Inc.), and the NQO1 expression was quantified by using the GAPDH expression as the reference.
In order to evaluate the NQO1 expression induction in each group, the NQO1 expression induction ratio was calculated by using the following equation. (NQO1 expression induction ratio)=(Average NQO1 expression in test compound administered group)[…](Average NQO1 expression in control group)

Row | Compound | fold induction at 10 mg/kg
9 | CC[C@@H]1CN(Cc2cc(C(c3ccc4c(nnn4C)c3C)C(C)(C)C(=O)O)ccc2C)Cc2cc3ncccc3cc2O1 (single isomer, unassigned) [Example 41] | > 6
10 | CC[C@@H]1CN(Cc2cc(C(c3ccc4c(nnn4C)c3C)C(C)(C)C(=O)O)ccc2C)Cc2cc3c(cc2O1)CCCC3 (single isomer, unassigned) [Example 33] | 3 to 6
11 | CC[C@@H]1CN(Cc2cc(C(c3ccc4c(nnn4C)c3C)C(C)(C)C(=O)O)ccc2C)Cc2cnc3ccccc3c2O1 (single isomer, unassigned) [Example 47] | > 6
12 | CC[C@@H]1CN(Cc2cc(C(c3ccc4c(nnn4C)c3C)C(C)(C)C(=O)O)ccc2C)Cc2cc3c(cc2O1)OC(F)(F)O3 (single isomer, unassigned) [Example 29] | > 6
13 | CC[C@H]1CN(Cc2cc(C(c3ccc4c(nnn4C)c3C)C(C)(C)C(=O)O)ccc2C)Cc2ncc3ccccc3c2O1 (single isomer, unassigned) [Example 89-(b)] | 3 to 6
14 | CC[C@@H]1CN(Cc2cc(C(c3ccc4c(nnn4C)c3C)C(C)(C)C(=O)O)ccc2C)Cc2nc3ccccc3cc2O1 (single isomer, unassigned) [Example 37] | > 6
15 | CC[C@@H]1CN(Cc2cc(C(c3ccc4c(nnn4C)c3C)C(C)(C)C(=O)O)ccc2C)Cc2ccc3c(c2O1)CCC3 (single isomer, unassigned) [Example 35] | > 6
16 | CC[C@@H]1CN(Cc2cc(C(c3ccc4c(nnn4C)c3C)C(C)(C)C(=O)O)ccc2C)Cc2cc3c(cc2O1)CCC3 (single isomer, unassigned) [Example 31] | 3 to 6

tested on: not listed separately; experiment: Metabolism test using human liver microsome fractions; assay type: in vitro ADME; details: human liver microsomes, test compound 10 μmol/L, NADPH and UDP-glucuronic acid, 37° C.
Protocol: A reaction composition solution (comprising NADPH Regenerating System, Solution A (manufactured by Corning Inc., REF. 451220) (50 μL), NADPH Regenerating System, Solution B (manufactured by Corning Inc., REF. 451200) (10 μL), 250 mM UDP-glucuronic acid (40 μL), UGT Reaction Mix Solution B (manufactured by Corning Inc., REF. 451320) (200 μL), and distilled water (640 μL)) in which human liver microsomes (manufactured by Xenotech, Cat. No. H610) or monkey liver microsomes (manufactured by Xenotech, Cat. No. P2000) (corresponding to 1 mg of protein) were suspended was prepared. After the solution was incubated at 37° C. for 5 minutes, each test compound dissolved into DMSO (manufactured by FUJIFILM Wako Pure Chemical Corporation, Code No. 043-07216) was added to the solution so that the final concentration was set to be 10 μmol/L, and a reaction was initiated. After 0, 5, 10, 15, 20, and 30 minute(s) from the initiation of the metabolism reaction, 100 μL of the reaction solution was taken out of the reaction system, and added to 200 μL of acetonitrile to stop the reaction. After the reaction was completed, the reaction solution was subjected to a work-up such as deproteinization, and then subjected to an UV-HPLC analysis to carry out the following analysis.
The peak area of each test compound was calculated by LabSolution software (Shimadzu Corporation), and the residual ratio (%) at each culture time of test material was calculated by the following equation. Residual ratio (%)=Peak area at each culture time[…]Peak area at 0 (initial time)
Next, the residual amount (nmol/mg/mL) at each culture time of test material was calculated by the following equation. Residual amount (nmol/mg/mL)=Initial concentration of reaction solution (10 nmol/mg/mL)×residual ratio÷100
Finally, a graph in which the reaction time was plotted at horizontal axis and the residual amount was plotted at longitudinal axis was prepared on Excel, and the inclination was calculated as the elimination rate (pmol/min/mg-P) within the time range in which the graph was deemed linear.

Row | Compound | Human metabolic rate
17 | CC[C@@H]1CN(Cc2cc(C(c3ccc4c(nnn4C)c3C)C(C)(C)C(=O)O)ccc2C)Cc2cc3ncccc3cc2O1 (single isomer, unassigned) [Example 41] | A (metabolic rate<100 pmol/min/mg protein)
18 | CC[C@@H]1CN(Cc2cc(C(c3ccc4c(nnn4C)c3C)C(C)(C)C(=O)O)ccc2C)Cc2cc3c(cc2O1)CCCC3 (single isomer, unassigned) [Example 33] | A (metabolic rate<100 pmol/min/mg protein)
19 | CC[C@@H]1CN(Cc2cc(C(c3ccc4c(nnn4C)c3C)C(C)(C)C(=O)O)ccc2C)Cc2cnc3ccccc3c2O1 (single isomer, unassigned) [Example 47] | B (100≤metabolic rate<150 pmol/min/mg protein)
20 | CC[C@@H]1CN(Cc2cc(C(c3ccc4c(nnn4C)c3C)C(C)(C)C(=O)O)ccc2C)Cc2cc3c(cc2O1)OC(F)(F)O3 (single isomer, unassigned) [Example 29] | A (metabolic rate<100 pmol/min/mg protein)
21 | CC[C@H]1CN(Cc2cc(C(c3ccc4c(nnn4C)c3C)C(C)(C)C(=O)O)ccc2C)Cc2ncc3ccccc3c2O1 (single isomer, unassigned) [Example 89-(b)] | E (metabolic rate≥250 pmol/min/mg protein)
22 | CC[C@@H]1CN(Cc2cc(C(c3ccc4c(nnn4C)c3C)C(C)(C)C(=O)O)ccc2C)Cc2nc3ccccc3cc2O1 (single isomer, unassigned) [Example 37] | A (metabolic rate<100 pmol/min/mg protein)
23 | CC[C@@H]1CN(Cc2cc(C(c3ccc4c(nnn4C)c3C)C(C)(C)C(=O)O)ccc2C)Cc2ccc3c(c2O1)CCC3 (single isomer, unassigned) [Example 35] | B (100≤metabolic rate<150 pmol/min/mg protein)
24 | CC[C@@H]1CN(Cc2cc(C(c3ccc4c(nnn4C)c3C)C(C)(C)C(=O)O)ccc2C)Cc2cc3c(cc2O1)CCC3 (single isomer, unassigned) [Example 31] | B (100≤metabolic rate<150 pmol/min/mg protein)
